Tests used:
STAT3 (pY705, pS727) = target: T1, STAT3 (pY705, pS727) (Homo sapiens, UniProt P40763); experiment: JAK/STAT phospho antibody array, phospho-STAT3 in EGF-treated MDA-MB-468 cells; type: cell-based; settings: EGF (25 ng) + 5 nM compound, 6 hrs
T1 construct: endogenous in cells; host or cells: MDA-MB-468
Experimental: FIG. 5 illustrates an embodiment of the present invention and illustrates evaluations of SIM-1 and SIM-2 as STAT3 inhibitors. (A) Protein thermal shift assay was performed to assess the melting of purified recombinant STAT3 (blue; 0.5 μg protein) (Tm=melting temperature=68.88° C.). The representative melting curves were derived after adding SIM-1 (red; 4 nM), SIM-2 (purple; 8 nM), and positive control stattic (grey; 20 nM) to the STAT3 protein. The differences of melting temperature (ΔTm) between pure protein and protein+ligands are −4.54° C., −4.16° C., and 0.39° C. for SIM-1, SIM-2, and stattic (ΔTm^cut-off>2° C.). […] Each colored arrowhead represents a specific phosphoprotein, and the description was added in the bottom of array images. […] Similarly, full-length STAT5b protein melting was assessed with (J) SIM-1, (K) SIM-2, and (L) stattic. […]
Protein array. […] After that, cells were scrapped with 1×TBS, lysed with lysis buffer supplemented with protease and phosphatase inhibitor cocktail, measured for total protein concentration ([…]), diluted 5 times with assay diluent buffer and then applied along with biotin-labeled probes on the glass membrane coated with antibodies. […]
Next, the present invention evaluated if these compounds as disclosed in the present invention as small-molecule inhibitors targeting STAT3 activation, inhibited the activation of STAT3, but not other STATs. […]

[1] = Solubility in aqueous solvent; type: physicochemical

T1 sequence (P40763 whole entry): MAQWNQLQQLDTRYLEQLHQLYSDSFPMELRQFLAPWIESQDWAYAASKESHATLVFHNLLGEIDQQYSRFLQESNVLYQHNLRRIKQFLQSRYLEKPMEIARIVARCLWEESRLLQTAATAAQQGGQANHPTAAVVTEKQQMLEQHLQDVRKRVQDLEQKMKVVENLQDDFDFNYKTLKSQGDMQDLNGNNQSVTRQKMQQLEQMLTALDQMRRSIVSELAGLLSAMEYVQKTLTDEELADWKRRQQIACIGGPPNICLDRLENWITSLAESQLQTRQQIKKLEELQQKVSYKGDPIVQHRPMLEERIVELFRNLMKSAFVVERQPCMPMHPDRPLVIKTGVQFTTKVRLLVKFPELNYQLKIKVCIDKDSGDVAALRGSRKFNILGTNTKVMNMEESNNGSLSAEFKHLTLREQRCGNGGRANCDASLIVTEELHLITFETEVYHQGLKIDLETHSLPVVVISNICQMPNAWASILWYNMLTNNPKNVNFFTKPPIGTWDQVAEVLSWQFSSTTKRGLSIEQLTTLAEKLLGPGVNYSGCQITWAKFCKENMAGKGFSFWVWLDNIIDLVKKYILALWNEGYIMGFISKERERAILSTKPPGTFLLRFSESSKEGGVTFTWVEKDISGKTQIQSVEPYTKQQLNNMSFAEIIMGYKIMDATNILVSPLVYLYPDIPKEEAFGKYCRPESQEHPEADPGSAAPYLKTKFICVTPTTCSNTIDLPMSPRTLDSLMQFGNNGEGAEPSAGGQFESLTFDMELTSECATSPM

SMILES	levels of pY705 STAT3 (STAT3 (pY705, pS727))	solubility in aqueous solvent [1]
CCOC(=O)c1c(NC(C)=O)sc2c(Cl)c(/C=N/O)ccc12 [SIM-2, ethyl 2-acetamido-7-chloro-6-(hydroxyiminomethyl)-1-benzothiophene-3-carboxylate]	strongly and selectively suppressed	partly soluble to insoluble
O=C(O)CCC(=O)NCc1csc2ccc(Cl)cc12 [SIM-1, 4-[(5-chloro-1-benzothiophen-3-yl)methylamino]-4-oxobutanoic acid]	strongly and selectively suppressed	partly soluble to insoluble
